Measurements published in patent publication US20210386736A1, “COMBINATION THERAPY FOR TREATING CANCER” (AstraZeneca AB, priority 2018, published 2021).

Columns and labels:
HL-60 AML cells = test: HL-60 subcutaneous AML xenograft, tumor volume over time; type: in vivo, SCID mice; details: FIG. 2; AZD2811 nanoparticles 50, 25, 12.5 or 6.25 mg/kg iv once weekly, venetoclax 100 mg/kg orally daily, 3 weekly cycles; combination benefit notably at the lowest doses of AZD2811
Description: HL-60: 1×10^7 HL-60 AML cells in 50% matrigel were implanted subcutaneously on the left flank of adult female SCID mice. Mice were randomised by tumor volume at D7 into groups of 8, with an average tumor volume of 0.2 cm^3 and all dosing was started. AZD2811 nanoparticles were dosed at once weekly with a 20-30 s intravenous infusion at either 50 mg/kg, 25 mg/kg, 12.5 mg/kg and 6.25 mg/kg (100 mg/kg was the maximum tolerated dose in combination with venetoclax (ABT-199) 100 mg/kg; venetoclax was administered orally daily at 100 mg/kg). All drugs were given for 3 weekly cycles. For both models, tumors were measured twice weekly by single operators, and all dosing was performed by randomised cage to minimise systematic bias. For the MOLM-13 orthotopic model, 1×10^6 MOLM-13 cells were injected into the tail vien of adult female NOG mice. After 3 days, mice were randomised by body-weight into groups of 8 and treatment was commenced the following day. AZD2811 nanoparticles were dosed at once weekly with a 20-30 s intravenous infusion at 25 mg/kg (25 mg/kg was the maximum tolerated dose in combination with venetoclax (ABT-199) 100 mg/kg; venetoclax was administered orally daily at 100 mg/kg). […] All drugs were given for 2 weekly cycles, the study endpoint was determined by a welfare scoring table.

KG1a AML cells = test: KG1a subcutaneous AML xenograft, tumor volume over time; type: in vivo, SCID mice; details: FIG. 1; AZD2811 nanoparticles 100 mg/kg iv once weekly, venetoclax 100 mg/kg orally daily, 3 weekly cycles
Description: KGa1: 2×10^7 KG1a AML cells in 50% matrigel were implanted subcutaneously on the left flank of adult female SCID mice. Mice were randomised by tumor volume at D7 into groups of 8, with an average tumor volume of 0.2 cm^3 and all dosing was started. AZD2811 nanoparticles were dosed at once weekly with a 20-30 s intravenous infusion at either 100 mg/kg (100 mg/kg was the maximum tolerated dose in combination with venetoclax (ABT-199) 100 mg/kg; venetoclax was administered orally daily at 100 mg/kg). All drugs were given for 3 weekly cycles.
HL-60: 1×10^7 HL-60 AML cells in 50% matrigel were implanted subcutaneously on the left flank of adult female SCID mice. Mice were randomised by tumor volume at D7 into groups of 8, with an average tumor volume of 0.2 cm^3 and all dosing was started. AZD2811 nanoparticles were dosed at once weekly with a 20-30 s intravenous infusion at either 50 mg/kg, 25 mg/kg, 12.5 mg/kg and 6.25 mg/kg (100 mg/kg was the maximum tolerated dose in combination with venetoclax (ABT-199) 100 mg/kg; venetoclax was administered orally daily at 100 mg/kg). All drugs were given for 3 weekly cycles. For both models, tumors were measured twice weekly by single operators, and all dosing was performed by randomised cage to minimise systematic bias. […] All drugs were given for 2 weekly cycles, the study endpoint was determined by a welfare scoring table.

For CC1(C)CCC(CN2CCN(c3ccc(C(=O)NS(=O)(=O)c4ccc(NCC5CCOCC5)c([N+](=O)[O-])c4)c(Oc4cnc5[nH]ccc5c4)c3)CC2)=C(c2ccc(Cl)cc2)C1 [venetoclax, Venetoclax], the “efficacy (HL-60 tumor volume over time)” value (HL-60 AML cells) was “active” and the “efficacy (KG1a tumor volume over time)” value (KG1a AML cells) was “modestly efficacious”.
